Test results from patent US6800651B2 (Eli Lilly and Company, priority 2000, dated 2004).
Like-named read-outs stand apart in the source and are kept apart here. Each block holds one compound with its values, some of them ahead of it.

Tests used:
mice = assay: Electroshock-induced seizures (tonic extensor seizures); type: in vivo, mouse; settings: electroshock 30 minutes later, percentage of mice protected from seizures
Protocol: Application of electrical stimulation by corneal electrodes to mice can induce tonic hindlimb-extensor seizures. Blockade of tonic extensor seizures induced by electroshock is considered predictive for drugs which block seizure propagation and may be effective in preventing various seizures in humans, including epileptic seizures.
Vehicle or a dose of a test drug are administered to groups of 5 to 10 mice each. Thirty minutes later, electroshock (10 mA, 0.2 sec duration) is administered by transcorneal electrodes. […] The data are reported as the percentage of mice which are protected from seizures.

mGlu2 receptor = mGlu2 receptor (Homo sapiens, UniProt Q14416); assay: Potentiation of glutamate-induced increase in intracellular calcium with a mGluR2 expressing cell line (FLIPR); type: cell-based; set-up: expressed in transfected cells; host or cells: RGT cells (co-transfected with GLAST), stably transfected with Galpha15; settings: for Emax / Emax at 1 µM / Emax at 3 µM: read-out: % Maximal Response (mean ± SD, n = 2); for Emax at 1 µM: 1 μM compound, no agonist, glutamate series 30 μM to 10 nM; for Emax at 3 µM: 3 μM compound, Buffer (no agonist)
Sequence of mGlu2 receptor (Q14416 19-872): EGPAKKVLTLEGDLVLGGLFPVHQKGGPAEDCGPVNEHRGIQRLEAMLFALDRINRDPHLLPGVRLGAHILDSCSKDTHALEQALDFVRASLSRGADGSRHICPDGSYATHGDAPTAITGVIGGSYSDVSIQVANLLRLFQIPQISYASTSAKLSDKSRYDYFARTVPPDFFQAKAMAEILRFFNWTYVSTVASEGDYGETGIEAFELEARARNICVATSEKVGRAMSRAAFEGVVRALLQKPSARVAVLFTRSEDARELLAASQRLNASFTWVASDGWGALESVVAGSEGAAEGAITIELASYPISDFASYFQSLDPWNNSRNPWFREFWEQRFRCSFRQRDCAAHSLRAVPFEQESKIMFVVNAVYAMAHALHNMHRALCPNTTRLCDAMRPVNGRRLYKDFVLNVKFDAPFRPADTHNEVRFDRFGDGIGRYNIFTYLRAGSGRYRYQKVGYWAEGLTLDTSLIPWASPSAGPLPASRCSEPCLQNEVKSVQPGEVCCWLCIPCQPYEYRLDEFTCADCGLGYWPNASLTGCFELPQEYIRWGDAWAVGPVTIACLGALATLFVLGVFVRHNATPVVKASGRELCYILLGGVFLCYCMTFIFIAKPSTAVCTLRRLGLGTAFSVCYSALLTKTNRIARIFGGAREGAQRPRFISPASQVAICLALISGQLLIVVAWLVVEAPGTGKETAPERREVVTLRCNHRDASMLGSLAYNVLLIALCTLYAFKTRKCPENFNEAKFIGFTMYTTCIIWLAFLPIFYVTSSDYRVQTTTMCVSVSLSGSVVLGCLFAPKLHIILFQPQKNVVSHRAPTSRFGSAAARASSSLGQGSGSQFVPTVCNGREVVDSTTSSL
Protocol: Potentiation of Glutamate-Induced Increase in Intracellular Calcium with a mGluR2 Expressing Cell Line.
Cell lines expressing human mGlu2 receptors were derived as previously described (Desai, Burnett, Mayne, Schoepp, Mol. Pharmacol. 48, 648-657, 1995) and cultured in DMEM with 5% dialyzed fetal bovine serum, 1 mM glutamine, 1 mM sodium pyruvate, 50 μg/ml Geneticin G418, and 0.2 mg/ml hygromycin B. Confluent cultures were passaged weekly. […] The RGT cell line expressing the mGluR2 receptors was stably transfected with the promiscuous G-protein, Galpha15 to change the signaling pathway to the mGlu2 receptor to one that could be easily measured through release of intracellular calcium. Thus, intracellular calcium levels were monitored before and after the addition of drugs on a Fluorometric Imaging Plate Reader (i.e. FLIPR, Molecular Devices). The following buffer was used throughout as an assay buffer: 10 mM KCl, 138 mM NaCl, 5 mM Ca Cl2, 1 mM MgCl2, 4 mM NaH2PO4, 10 mM Glucose, 10 mM HEPES, pH 7.4. Cells that had been plated 48 h prior at a density of 30-40,000 cells per well in a 96-well plate were loaded with a calcium-sensitive dye for 90 min at 25° C. Fluo-3 (2 mM in DMSO, Molecular Probes) were mixed with a equal volume of 10% pluronic acid in DMSO, and diluted to 8 μM into the buffer described above containing 10% fetal bovine serum to make the loading buffer. Following loading of the cells, the loading buffer was removed and replaced with assay buffer prior to drug addition and monitoring on the FLIPR.

[1] = 10 nM Glutamate + 1 μM compound
[2] = 30 nM Glutamate + 1 μM compound
[3] = 100 nM Glutamate + 1 μM compound
[4] = 300 nM Glutamate + 1 μM compound
[5] = 10 μM Glutamate + 1 μM compound
[6] = 30 μM Glutamate + 1 μM compound

Compound: CCS(=O)(=O)N(Cc1cccnc1)c1cccc(-c2ccc(C#N)cc2)c1 [Example 590]
Percent Protection (mice; 30 mg/kg ip): 60% | Percent Protection (mice; 100 mg/kg ip): 100%

% Maximal Glutamate Response (as defined by 30 μM Glutamate) mean ± SD (mGlu2 receptor; 0.5 μM L-glutamate alone): 1.9 ± 1.0%
Compound: N[C@@H](CCC(=O)O)C(=O)O [Glutamate, L-glutamate, reference compound]

Emax (mGlu2 receptor; [1]): -0.3 ± 0.2% | Emax (mGlu2 receptor; [2]): 2.2 ± 1.3% | Emax (mGlu2 receptor; [3]): 1.5 ± 1.2% | Emax (mGlu2 receptor; [4]): 42.5 ± 4.3% | Emax (mGlu2 receptor; 1 μM Glutamate + 1 μM compound): 79.2 ± 14.6% | Emax at 1 µM (mGlu2 receptor): 0.1 ± 0.1% | Emax (mGlu2 receptor; 3 μM Glutamate + 1 μM compound): 112 ± 10.3% | Emax (mGlu2 receptor; [5]): 108 ± 10.7% | % Maximal Glutamate Response (as defined by 30 μM Glutamate) mean ± SD (mGlu2 receptor; 20 μM compound + 0.5 μM L-glutamate): 85.5 ± 5.8% | % Maximal Glutamate Response (as defined by 30 μM Glutamate) mean ± SD (mGlu2 receptor; 20 μM compound alone): 2.3 ± 0.8% | Emax (mGlu2 receptor; [6]): 117 ± 4.3%
Compound: COc1ccccc1Oc1cccc(N(Cc2cccnc2)S(=O)(=O)CC(F)(F)F)c1 [Example 1, N-(3-(2-Methoxyphenoxy)phenyl)-N-(2,2,2-trifluoroethylsulfonyl)pyrid-3-ylmethylamine]

melting point: 110 to 112 °C
Compound: CCS(=O)(=O)N(Cc1cccnc1F)c1ccc(Oc2ccc(F)cc2F)cc1 [Example 615, N-(4-(2,4-Difluorophenoxy)phenyl)-N-(ethanesulfonyl)-2-fluoropyrid-3-ylmethylamine]

melting point: 57.5 to 60 °C
Compound: O=S(=O)(CC(F)(F)F)N(Cc1cccnc1)c1cccc(Oc2ccccc2O)c1 [Example 23, N-(3-(2-Hydroxyphenoxy)phenyl)-N-(2,2,2-trifluoroethylsulfonyl)pyrid-3-ylmethylamine]

Emax (mGlu2 receptor; [1]): 2.4 ± 0.3% | Emax (mGlu2 receptor; [2]): 4.7 ± 0.4% | Emax (mGlu2 receptor; [3]): 20.5 ± 4.3% | Emax (mGlu2 receptor; [4]): 60 ± 10.6% | Emax (mGlu2 receptor; 1 μM Glutamate + 1 μM compound): 93.1 ± 2.5% | Emax at 1 µM (mGlu2 receptor): 4.2 ± 2.7% | Emax (mGlu2 receptor; 3 μM Glutamate + 1 μM compound): 102 ± 8.1% | Emax (mGlu2 receptor; [5]): 103 ± 6.2% | Emax (mGlu2 receptor; [6]): 108 ± 12.3%
Compound: COc1ccccc1Oc1ccc(N(Cc2cccnc2)S(=O)(=O)CC(F)(F)F)cc1Cl [Example 9, N-(4-(2-Methoxyphenoxy)-3-chlorophenyl)-N-(2,2,2-trifluoroethylsulfonyl)pyrid-3-ylmethylamine]

Emax (mGlu2 receptor; 1 nM APDC + 3 μM compound): 0.1 ± 0.7% | Emax (mGlu2 receptor; 1 nM DCG IV + 3 μM compound): -0.1 ± 0.6% | Emax (mGlu2 receptor; 30 nM APDC + 3 μM compound): 0.5 ± 1.5% | Emax (mGlu2 receptor; 30 nM DCG IV + 3 μM compound): 11.1 ± 6.1% | Emax (mGlu2 receptor; 100 nM APDC + 3 μM compound): 0.2 ± 0.6% | Emax (mGlu2 receptor; 100 nM DCG IV + 3 μM compound): 83.3 ± 10.5% | Emax (mGlu2 receptor; 300 nM APDC + 3 μM compound): 28.4 ± 1.7% | Emax (mGlu2 receptor; 300 nM DCG IV + 3 μM compound): 133 ± 5.5% | Emax (mGlu2 receptor; 1 μM APDC + 3 μM compound): 92 ± 3.4% | Emax (mGlu2 receptor; 1 μM DCG IV + 3 μM compound): 141 ± 5.9% | Emax (mGlu2 receptor; 3 μM APDC + 3 μM compound): 114 ± 0.8% | Emax (mGlu2 receptor; 3 μM DCG IV + 3 μM compound): 153 ± 2.8% | Emax at 3 µM (mGlu2 receptor; APDC series): 4.7 ± 0.4% | Emax at 3 µM (mGlu2 receptor; DCG IV series): 3.7 ± 1.4% | Emax (mGlu2 receptor; 10 μM APDC + 3 μM compound): 119 ± 4% | Emax (mGlu2 receptor; 10 μM DCG IV + 3 μM compound): 148 ± 1.5% | Emax (mGlu2 receptor; 30 μM APDC + 3 μM compound): 120 ± 10% | Emax (mGlu2 receptor; 30 μM DCG IV + 3 μM compound): 138 ± 7.1%
Compound: O=S(=O)(CC(F)(F)F)N(Cc1cccnc1)c1ccc(Oc2ccccc2)cc1 [Example 22, N-(4-(Phenoxy)phenyl)-N-(2,2,2-trifluoroethylsulfonyl)pyrid-3-ylmethylamine]
